In patent US20160200733A1, “SUBSTITUTED THIENO[2,3-B]PYRIDINE-2-CARBOXAMIDE ANALOGS AS POSITIVE ALLOSTERIC MODULATORS OF THE MUSCARINIC ACETYLCHOLINE RECEPTOR M4” (Vanderbilt University, priority 2013, published 2016):
pEC50: −log10 of the molar value.

Molecular target: T1, mAChR hM4 (Homo sapiens, UniProt P08173)
T1 construct: expressed in transfected cells; host or cells: CHO-K1 (Chinese hamster ovary) cells
T1 sequence (P08173 1-479): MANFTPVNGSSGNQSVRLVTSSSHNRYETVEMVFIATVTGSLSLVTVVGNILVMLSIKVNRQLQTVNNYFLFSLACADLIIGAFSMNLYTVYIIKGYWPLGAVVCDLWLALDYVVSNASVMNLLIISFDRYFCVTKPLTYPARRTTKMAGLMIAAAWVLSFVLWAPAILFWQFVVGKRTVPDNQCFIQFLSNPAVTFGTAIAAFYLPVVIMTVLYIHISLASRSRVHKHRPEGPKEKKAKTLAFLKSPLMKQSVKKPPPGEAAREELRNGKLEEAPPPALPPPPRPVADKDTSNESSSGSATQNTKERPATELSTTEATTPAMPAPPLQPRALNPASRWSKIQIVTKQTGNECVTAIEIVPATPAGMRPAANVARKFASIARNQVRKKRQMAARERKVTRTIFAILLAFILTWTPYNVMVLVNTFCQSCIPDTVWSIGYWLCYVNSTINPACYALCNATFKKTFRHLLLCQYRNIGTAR
Test: mAChR M4 cell-based functional assay (calcium flux, potentiation of EC20 acetylcholine response)
Details: mAChR hM4 cell-line; for pEC50: >10,000 estimated for low potency compounds lacking a plateau; for Emax at 30 µM: % ACh maximum at 30 μM
Source text: In one aspect, the disclosed compounds potentiate the agonist response (e.g., acetylcholine) of mAChR M4. In a further aspect, the disclosed compounds increase mAChR M4 response to non-maximal concentrations of agonist in the presence of compound compared to the response to agonist in the absence of compound. […] For example, activation of mAChR M4 activity can be determined by measurement of calcium flux in response to agonist, e.g. acetylcholine, in cells loaded with a Ca^2+-sensitive fluorescent dye (e.g., Fluo-4). In a further aspect, the calcium flux was measured as an increase in fluorescent static ratio. In a yet further aspect, positive allosteric modulator activity was analyzed as a concentration-dependent increase in the EC20 acetylcholine response (i.e. the response of mAChR M4 at a concentration of acetylcholine that yields 20% of the maximal response).
In one aspect, the disclosed compounds activate mAChR M4 response as an increase in calcium fluorescence in mAChR M4-transfected CHO-K1 cells in the presence of the compound, compared to the response of equivalent CHO-K1 cells in the absence of the compound. […] In a further aspect, the mAChR M4-transfected CHO-K1 cells are transfected with human mAChR M4. In a still further aspect, the mAChR M4-transfected CHO-K1 cells are transfected with rat mAChR M4.
Substituted 3-aminothieno[2,3-c]pyridine-2-carboxamide analogs were synthesized as described above. Activity (EC50 and Emax) was determined in the mAChR M4 cell-based functional assay as described above, and the data are shown in Table II for assays conducted using mAChR hM4 cell-line. The compound number corresponds to the compound numbers used in Table I.

SMILES | pEC50 | Emax at 30 µM [%]
Cc1nc2sc(C(=O)N3CCC(F)(F)CC3)c(-c3cnn(C)c3)c2c(C)c1Cl [Compound 108, (5-chloro-4,6-dimethyl-3-(1-methyl-1H-pyrazol-4-yl)thieno[2,3-b]pyridin-2-yl)(4,4-difluoropiperidin-1-yl)methanone] | < 5.00 | –
Cc1cc(C)c2c(C)c(C(=O)NCc3ccc(S(C)(=O)=O)cc3)sc2n1 [Compound 19, 3,4,6-trimethyl-N-(4-(methylsulfonyl)benzyl)thieno[2,3-b]pyridine-2-carboxamide] | 5.38 | 62
Cc1cc(C)c2c(-c3cnn(C)c3)c(C(=O)NCc3cnn(-c4ccccc4)c3)sc2n1 [Compound 71, 4,6-dimethyl-3-(1-methyl-1H-pyrazol-4-yl)-N-((1-phenyl-1H-pyrazol-4-yl)methyl)thieno[2,3-b]pyridine-2-carboxamide] | < 5.00 | –
Cc1nc2sc(C(=O)NCc3ccc4c(c3)CCO4)c(Br)c2c(C)c1Cl [Compound 46, 3-bromo-5-chloro-N-((2,3-dihydrobenzofuran-5-yl)methyl)-4,6-dimethylthieno[2,3-b]pyridine-2-carboxamide] | < 5.00 | –
Cc1cc(C)c2cc(C(=O)NC3COC3)sc2n1 [Compound 74, 4,6-dimethyl-N-(oxetan-3-yl)thieno[2,3-b]pyridine-2-carboxamide] | < 5.00 | 46
Cc1cc(C)c2c(C)c(C(=O)NC3CCOCC3)sc2n1 [Compound 26, 3,4,6-trimethyl-N-(tetrahydro-2H-pyran-4-yl)thieno[2,3-b]pyridine-2-carboxamide] | < 5.00 | 44
Cc1cc(C)c2c(Br)c(C(=O)NC3CC3)sc2n1 [Compound 4, 3-bromo-N-cyclopropyl-4,6-dimethylthieno[2,3-b]pyridine-2-carboxamide] | 5.32 | 49
Cc1nc2sc(C(=O)NC3CCS(=O)(=O)C3)c(C)c2c(C)c1Cl (centres unmarked) [Compound 59, 5-chloro-N-(1,1-dioxidotetrahydrothiophen-3-yl)-3,4,6-trimethylthieno[2,3-b]pyridine-2-carboxamide] | 6.02 | 45
Cc1cc(C)c2c(C)c(C(=O)NCc3ccc4c(c3)CCO4)sc2n1 [Compound 20, N-((2,3-dihydrobenzofuran-5-yl)methyl)-3,4,6-trimethylthieno[2,3-b]pyridine-2-carboxamide] | 5.59 | 38
Cc1cc(C)c2c(Br)c(C(=O)NCc3cccnc3)sc2n1 [Compound 9, 3-bromo-4,6-dimethyl-N-(pyridin-3-ylmethyl)thieno[2,3-b]pyridine-2-carboxamide] | 5.52 | 33
COc1ccc(CNC(=O)c2cc3c(C)cc(C)nc3s2)cc1F [Compound 84, N-(3-fluoro-4-methoxybenzyl)-4,6-dimethylthieno[2,3-b]pyridine-2-carboxamide] | 5.17 | 49
Cc1nc2sc(C(=O)NCC(C)(C)O)c(C3CC3)c2c(C)c1Cl [Compound 50, 5-chloro-3-cyclopropyl-N-(2-hydroxy-2-methylpropyl)-4,6-dimethylthieno[2,3-b]pyridine-2-carboxamide] | < 5.00 | 43
Cc1nc2sc(C(=O)NC3CCOC3)c(-c3cnn(C)c3)c2c(C)c1Cl (centres unmarked) [Compound 91, 5-chloro-4,6-dimethyl-3-(1-methyl-1H-pyrazol-4-yl)-N-(tetrahydrofuran-3-yl)thieno[2,3-b]pyridine-2-carboxamide] | < 5.00 | –
Cc1cnc2sc(C(=O)NCc3ccc(-c4cccnc4F)cc3)cc2c1C [Compound 101, N-(4-(2-fluoropyridin-3-yl)benzyl)-4,5-dimethylthieno[2,3-b]pyridine-2-carboxamide] | 5.57 | 41
Cc1cc(C)c2c(-c3cnn(C)c3)c(C(=O)N3CCC(c4ccccc4)C3)sc2n1 (centres unmarked) [Compound 67, (4,6-dimethyl-3-(1-methyl-1H-pyrazol-4-yl)thieno[2,3-b]pyridin-2-yl)(3-phenylpyrrolidin-1-yl)methanone] | < 5.00 | –
Cc1nc2sc(C(=O)NC3COC3)c(-c3ccsc3)c2c(C)c1Cl [Compound 117, 5-chloro-4,6-dimethyl-N-(oxetan-3-yl)-3-(thiophen-3-yl)thieno[2,3-b]pyridine-2-carboxamide] | < 5.00 | –

SMILES | pEC50 | Emax at 30 µM [%]
COc1ccc(CNC(=O)c2sc3nc(C)c(Cl)c(C)c3c2C2CC2)cc1F [Compound 69, 5-chloro-3-cyclopropyl-N-(3-fluoro-4-methoxybenzyl)-4,6-dimethylthieno[2,3-b]pyridine-2-carboxamide] | < 5.00 | –
Cc1nc2sc(C(=O)N3CCC(c4ccccc4)C3)c(-c3cnn(C)c3)c2c(C)c1Cl (centres unmarked) [Compound 86, (5-chloro-4,6-dimethyl-3-(1-methyl-1H-pyrazol-4-yl)thieno[2,3-b]pyridin-2-yl)(3-phenylpyrrolidin-1-yl)methanone] | < 5.00 | –
Cc1cc(C)c2cc(C(=O)NCc3ccc(S(=O)(=O)C(F)(F)F)cc3)sc2n1 [Compound 85, 4,6-dimethyl-N-(4-((trifluoromethyl)sulfonyl)benzyl)thieno[2,3-b]pyridine-2-carboxamide] | < 5.00 | –
Cc1nc2sc(C(=O)NC3CC3)c(C3CC3)c2c(C)c1Cl [Compound 54, 5-chloro-N,3-dicyclopropyl-4,6-dimethylthieno[2,3-b]pyridine-2-carboxamide] | 6.37 | 50
Cc1cc(C)c2c(Br)c(C(=O)NCC3CC3)sc2n1 [Compound 13, 3-bromo-N-(cyclopropylmethyl)-4,6-dimethylthieno[2,3-b]pyridine-2-carboxamide] | < 5.00 | 29
Cc1cc(C)c2c(Br)c(C(=O)NC3CCOC3)sc2n1 (centres unmarked) [Compound 7, 3-bromo-4,6-dimethyl-N-(tetrahydrofuran-3-yl)thieno[2,3-b]pyridine-2-carboxamide] | < 5.00 | –
Cc1cc(C)c2c(Br)c(C(=O)N3CCOCC3)sc2n1 [Compound 14, (3-bromo-4,6-dimethylthieno[2,3-b]pyridin-2-yl)(morpholino)methanone] | < 5.00 | –
Cc1nc2sc(C(=O)NCc3cnn(-c4ccccc4)c3)c(-c3cnn(C)c3)c2c(C)c1Cl [Compound 98, 5-chloro-4,6-dimethyl-3-(1-methyl-1H-pyrazol-4-yl)-N-((1-phenyl-1H-pyrazol-4-yl)methyl)thieno[2,3-b]pyridine-2-carboxamide] | < 5.00 | –
Cc1nc2sc(C(=O)N3CCN(C)CC3)c(-c3cnn(C)c3)c2c(C)c1Cl [Compound 107, (5-chloro-4,6-dimethyl-3-(1-methyl-1H-pyrazol-4-yl)thieno[2,3-b]pyridin-2-yl)(4-methylpiperazin-1-yl)methanone] | < 5.00 | –
COc1ccc(CNC(=O)c2sc3nc(C)c(Cl)c(C)c3c2-c2cnn(C)c2)cc1F [Compound 99, 5-chloro-N-(3-fluoro-4-methoxybenzyl)-4,6-dimethyl-3-(1-methyl-1H-pyrazol-4-yl)thieno[2,3-b]pyridine-2-carboxamide] | < 5.00 | –
Cc1nc2sc(C(=O)NC3CC3)c(Br)c2c(C)c1Cl [Compound 49, 3-bromo-5-chloro-N-cyclopropyl-4,6-dimethylthieno[2,3-b]pyridine-2-carboxamide] | 6.11 | 62
COc1ccc(CNC(=O)c2cc3c(C)cc(C)nc3s2)cc1 [Compound 15, N-(4-methoxybenzyl)-4,6-dimethylthieno[2,3-b]pyridine-2-carboxamide] | 5.40 | 55
Cc1cc(C)c2c(C)c(C(=O)N3CCCC(F)(F)C3)sc2n1 [Compound 23, (3,3-difluoropiperidin-1-yl)(3,4,6-trimethylthieno[2,3-b]pyridin-2-yl)methanone] | < 5.00 | –
Cc1nc2sc(C(=O)NC3COC3)c(C3CC3)c2c(C)c1Cl [Compound 55, 5-chloro-3-cyclopropyl-4,6-dimethyl-N-(oxetan-3-yl)thieno[2,3-b]pyridine-2-carboxamide] | 6.07 | 85
Cc1nc2sc(C(=O)NC3CCOC3)c(C3CC3)c2c(C)c1Cl (centres unmarked) [Compound 52, 5-chloro-3-cyclopropyl-4,6-dimethyl-N-(tetrahydrofuran-3-yl)thieno[2,3-b]pyridine-2-carboxamide] | 5.80 | 60
